This is an account of results in US20210252008A1, “BIARYL COMPOSITIONS AND METHODS FOR MODULATING A KINASE CASCADE” (Athenex, Inc., priority 2004, published 2021).

The structures appear in SMILES notation.

For test [1], the system named is She Y239/240. Put plainly: Intracellular phosphorylation levels: She Y239/240. It is filed as cell-based. To be noted: c-Src/NIH-3T3 and HT-29 cells; FIG. 3. The procedure:
(§1) HT29 (colon cancer) and c-Src527F/NIH-3T3 (Src transformed) cell lines were treated with KX2-391 or with AstraZeneca's ATP competitive Src inhibitor AZ28. AZ28 serves as a positive comparator to show what a validated Src inhibitor should do in these assays. After treatment with compound, cells were lysed, subjected to PAGE and probed with a battery of antibodies. […] In addition, off-target protein phosphorylation was also investigated. Further, induction of apoptosis was evaluated via Caspase 3 cleavage. Multiple doses of each compound were tested because the trends in response to increasing drug concentration are the most reliable indicator of activity.
(§2) The same range of multiples of the GI50 for AZ28 in these two cell lines was run as a comparison.

Test [2] has as its target CHK1(h) (Homo sapiens, UniProt O14757). Nature of the test: Inhibition of isolated kinases. To be noted: compound @ 10 μM. The class given is biochemical.
Test [3] deals with FAK Y397. Nature of the test: FAK autophosphorylation in cells. It is filed as cell-based. The following applies: c-Src527F/NIH3T3 cells; FIG. 8. The procedure: as §1, §2
FAK Y397 is mainly a FAK autophosphorylation site and only a poor Src transphorylation site. AZ28 is […] FAK inhibitor (see isolated enzyme data in Table 5). However, no inhibition of FAK autophosphorylation in c-Src527F/NIH3T3 cells is seen with KX-391.

Test [4] relates to PDGF receptor tyrosine kinase Y572/574. Put plainly: PDGF receptor autophosphorylation in cells. The class given is cell-based. To be noted: c-Src/NIH-3T3 cells; FIG. 7. On the procedure: as §1, §2
This is thought not to be a direct Src substrate in cells.

Test [5] has as its system FAK Tyr 925. Put plainly: Intracellular phosphorylation levels: FAK Tyr 925. The following applies: c-Src/NIH-3T3 and HT-29 cells; FIG. 2. It is filed as cell-based. The procedure:
as §1, §2

Test [6] addresses Fyn(h) (Homo sapiens, UniProt P06241). Put plainly: Inhibition of isolated kinases. It is filed as biochemical. To be noted: compound @ 10 μM. The text has this:
(§3) Table 5 illustrates percent activity of isolated kinases in the presence of the AstraZeneca ATP-competitive inhibitor (KX-328, AZ-28) or KX2-391 relative to control (untreated) isolated kinases.

In test [7] the target is PKCα(h) (Homo sapiens, UniProt P17252). Nature of the test: Inhibition of isolated kinases. It is filed as biochemical. To be noted: compound @ 10 μM.
From the text: as §3

In test [8] the test system is PI3 kinase. Put plainly: Inhibition of isolated kinases. The following applies: compound @ 10 μM. The class given is biochemical.
From the text: as §3

Test [9] concerns the target ZAP-70(h) (Homo sapiens, UniProt P43403). Nature of the test: Inhibition of isolated kinases. The class given is biochemical. To be noted: compound @ 10 μM.
From the text: as §3

For test [10], the target named is Pyk2(h) (Homo sapiens, UniProt Q14289). Put plainly: Inhibition of isolated kinases. To be noted: compound @ 10 μM. The class given is biochemical.
From the text: as §3

Test [11] concerns the target Lck(h) (Homo sapiens, UniProt P06239). Nature of the test: Inhibition of isolated kinases. It is filed as biochemical. The following applies: compound @ 10 μM.
From the text: as §3

Test [12] addresses Abl(h) (Homo sapiens, UniProt P00519). Put plainly: Inhibition of isolated kinases. The class given is biochemical. To be noted: compound @ 10 μM.
From the text: as §3

The target in test [13] is EGFR(h) (Homo sapiens, UniProt P00533). Put plainly: Inhibition of isolated kinases. The class given is biochemical. The following applies: compound @ 10 μM.
EGFR(h), sequence (P00533 25-1210): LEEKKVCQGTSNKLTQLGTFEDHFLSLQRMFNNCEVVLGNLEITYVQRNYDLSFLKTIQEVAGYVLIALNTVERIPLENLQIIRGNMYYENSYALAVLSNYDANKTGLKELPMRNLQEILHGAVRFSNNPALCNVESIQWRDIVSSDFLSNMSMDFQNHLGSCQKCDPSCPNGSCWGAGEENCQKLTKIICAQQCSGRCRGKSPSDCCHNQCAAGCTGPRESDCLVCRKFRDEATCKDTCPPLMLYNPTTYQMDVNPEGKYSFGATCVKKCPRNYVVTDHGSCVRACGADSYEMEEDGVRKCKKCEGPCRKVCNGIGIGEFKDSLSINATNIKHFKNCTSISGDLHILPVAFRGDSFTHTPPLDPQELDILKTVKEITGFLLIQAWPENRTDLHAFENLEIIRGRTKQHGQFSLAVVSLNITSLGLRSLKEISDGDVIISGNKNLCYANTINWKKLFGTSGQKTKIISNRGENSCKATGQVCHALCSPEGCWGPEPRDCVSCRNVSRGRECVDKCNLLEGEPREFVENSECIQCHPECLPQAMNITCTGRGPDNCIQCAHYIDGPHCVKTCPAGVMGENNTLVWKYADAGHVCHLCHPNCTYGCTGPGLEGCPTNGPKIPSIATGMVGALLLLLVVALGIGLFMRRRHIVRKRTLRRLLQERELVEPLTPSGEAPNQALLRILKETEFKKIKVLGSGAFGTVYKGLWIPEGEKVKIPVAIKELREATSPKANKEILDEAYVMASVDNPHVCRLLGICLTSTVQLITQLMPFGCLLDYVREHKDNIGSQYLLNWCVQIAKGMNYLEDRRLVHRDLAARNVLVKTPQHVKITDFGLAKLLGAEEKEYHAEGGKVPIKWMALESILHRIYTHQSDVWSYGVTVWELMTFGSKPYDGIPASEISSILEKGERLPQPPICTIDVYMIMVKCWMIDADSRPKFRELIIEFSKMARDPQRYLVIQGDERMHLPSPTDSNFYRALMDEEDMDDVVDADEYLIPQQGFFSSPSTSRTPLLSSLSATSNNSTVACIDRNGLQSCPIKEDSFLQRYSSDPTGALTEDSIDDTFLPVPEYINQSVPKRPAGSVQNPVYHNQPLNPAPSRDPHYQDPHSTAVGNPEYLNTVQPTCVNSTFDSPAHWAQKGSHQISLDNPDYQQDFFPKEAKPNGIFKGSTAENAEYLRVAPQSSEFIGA
From the text: as §3

Test [14] concerns the target PDGFRβ(h) (Homo sapiens, UniProt P09619). Put plainly: Inhibition of isolated kinases. To be noted: compound @ 10 μM. It is filed as biochemical.
From the text: as §3

In test [15] the target is MAPK2(h) (Homo sapiens, UniProt P28482). Nature of the test: Inhibition of isolated kinases. The following applies: compound @ 10 μM. It is filed as biochemical.
MAPK2(h), sequence (P28482 whole entry): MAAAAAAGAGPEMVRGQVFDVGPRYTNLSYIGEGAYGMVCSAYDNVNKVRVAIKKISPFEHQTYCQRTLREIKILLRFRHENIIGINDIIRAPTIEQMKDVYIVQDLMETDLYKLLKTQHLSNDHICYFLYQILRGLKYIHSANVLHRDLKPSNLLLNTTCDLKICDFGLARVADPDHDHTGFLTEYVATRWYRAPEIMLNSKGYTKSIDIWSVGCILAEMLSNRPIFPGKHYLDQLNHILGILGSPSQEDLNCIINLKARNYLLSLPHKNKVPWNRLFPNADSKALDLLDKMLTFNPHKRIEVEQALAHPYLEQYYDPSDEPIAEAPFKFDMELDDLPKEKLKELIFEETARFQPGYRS
From the text: as §3

In test [16] the target is Lyn(h) (Homo sapiens, UniProt P07948). Put plainly: Inhibition of isolated kinases. It is filed as biochemical. The following applies: compound @ 10 μM.
Lyn(h), sequence (P07948 whole entry): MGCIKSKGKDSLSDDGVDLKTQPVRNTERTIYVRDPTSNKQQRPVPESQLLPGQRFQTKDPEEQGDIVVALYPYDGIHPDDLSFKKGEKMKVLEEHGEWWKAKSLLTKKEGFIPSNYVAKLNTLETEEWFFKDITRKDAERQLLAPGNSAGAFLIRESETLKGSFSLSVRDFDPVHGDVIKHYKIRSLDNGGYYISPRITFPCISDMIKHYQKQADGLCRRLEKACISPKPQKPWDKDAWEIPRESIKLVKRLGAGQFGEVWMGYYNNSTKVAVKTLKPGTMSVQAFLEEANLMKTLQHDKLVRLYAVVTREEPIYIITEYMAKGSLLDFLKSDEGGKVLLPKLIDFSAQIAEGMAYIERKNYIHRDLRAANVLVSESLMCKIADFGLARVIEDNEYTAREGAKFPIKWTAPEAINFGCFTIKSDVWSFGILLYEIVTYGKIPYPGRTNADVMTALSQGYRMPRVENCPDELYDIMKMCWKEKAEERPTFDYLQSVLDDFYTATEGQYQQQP
From the text: as §3

The target in test [17] is IGF-1R(h) (Homo sapiens, UniProt P08069). Put plainly: Inhibition of isolated kinases. The class given is biochemical. The following applies: compound @ 10 μM.
From the text: as §3

The target of test [18] is IR(h) (Homo sapiens, UniProt P06213). Nature of the test: Inhibition of isolated kinases. It is filed as biochemical. To be noted: compound @ 10 μM.
From the text: as §3

Test [19] deals with FGFR2(h) (Homo sapiens, UniProt P21802). Put plainly: Inhibition of isolated kinases. The class given is biochemical. The following applies: compound @ 10 μM.
From the text: as §3

Test [20] addresses Yes(h) (Homo sapiens, UniProt P07947). Nature of the test: Inhibition of isolated kinases. The class given is biochemical. The following applies: compound @ 10 μM.
From the text: as §3

Test [21] has as its system Paxillin Y-31. Put plainly: Intracellular phosphorylation levels: Paxillin Y-31. It is filed as cell-based. To be noted: c-Src/NIH-3T3 cells; FIG. 4. On the procedure: as §1, §2
Note: paxillin Y-31 was not detected in HT29 cells with or without added drug.

ZAP-70(h), sequence (P43403 whole entry): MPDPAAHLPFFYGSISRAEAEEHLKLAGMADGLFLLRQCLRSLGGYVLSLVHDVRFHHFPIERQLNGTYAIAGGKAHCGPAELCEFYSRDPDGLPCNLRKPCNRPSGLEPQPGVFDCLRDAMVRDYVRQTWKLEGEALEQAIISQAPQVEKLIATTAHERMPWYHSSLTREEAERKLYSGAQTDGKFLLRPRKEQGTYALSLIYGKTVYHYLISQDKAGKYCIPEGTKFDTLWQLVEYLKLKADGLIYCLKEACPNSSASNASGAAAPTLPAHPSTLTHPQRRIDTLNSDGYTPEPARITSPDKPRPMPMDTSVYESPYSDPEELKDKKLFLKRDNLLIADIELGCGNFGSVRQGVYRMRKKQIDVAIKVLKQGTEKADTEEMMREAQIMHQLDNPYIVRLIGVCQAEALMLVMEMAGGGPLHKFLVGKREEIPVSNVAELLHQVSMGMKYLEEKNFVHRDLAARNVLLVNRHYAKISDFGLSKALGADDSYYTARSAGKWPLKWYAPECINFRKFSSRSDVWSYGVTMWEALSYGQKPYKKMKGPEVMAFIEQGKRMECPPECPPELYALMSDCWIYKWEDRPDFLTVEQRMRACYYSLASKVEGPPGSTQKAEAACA
CHK1(h), sequence (O14757 whole entry): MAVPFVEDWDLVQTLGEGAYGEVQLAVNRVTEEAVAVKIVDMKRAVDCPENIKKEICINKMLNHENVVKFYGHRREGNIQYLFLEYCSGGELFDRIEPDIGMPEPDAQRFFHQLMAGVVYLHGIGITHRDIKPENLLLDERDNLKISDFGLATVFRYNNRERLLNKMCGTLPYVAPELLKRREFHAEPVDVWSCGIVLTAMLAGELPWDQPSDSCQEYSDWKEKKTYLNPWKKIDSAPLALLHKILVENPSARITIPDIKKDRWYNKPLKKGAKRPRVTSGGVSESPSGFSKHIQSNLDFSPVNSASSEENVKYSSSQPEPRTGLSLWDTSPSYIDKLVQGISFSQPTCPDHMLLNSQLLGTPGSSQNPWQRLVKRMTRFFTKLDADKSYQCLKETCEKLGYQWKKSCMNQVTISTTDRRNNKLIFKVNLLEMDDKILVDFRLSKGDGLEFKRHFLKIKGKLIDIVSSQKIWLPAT
PDGFRβ(h), sequence (P09619 33-1106): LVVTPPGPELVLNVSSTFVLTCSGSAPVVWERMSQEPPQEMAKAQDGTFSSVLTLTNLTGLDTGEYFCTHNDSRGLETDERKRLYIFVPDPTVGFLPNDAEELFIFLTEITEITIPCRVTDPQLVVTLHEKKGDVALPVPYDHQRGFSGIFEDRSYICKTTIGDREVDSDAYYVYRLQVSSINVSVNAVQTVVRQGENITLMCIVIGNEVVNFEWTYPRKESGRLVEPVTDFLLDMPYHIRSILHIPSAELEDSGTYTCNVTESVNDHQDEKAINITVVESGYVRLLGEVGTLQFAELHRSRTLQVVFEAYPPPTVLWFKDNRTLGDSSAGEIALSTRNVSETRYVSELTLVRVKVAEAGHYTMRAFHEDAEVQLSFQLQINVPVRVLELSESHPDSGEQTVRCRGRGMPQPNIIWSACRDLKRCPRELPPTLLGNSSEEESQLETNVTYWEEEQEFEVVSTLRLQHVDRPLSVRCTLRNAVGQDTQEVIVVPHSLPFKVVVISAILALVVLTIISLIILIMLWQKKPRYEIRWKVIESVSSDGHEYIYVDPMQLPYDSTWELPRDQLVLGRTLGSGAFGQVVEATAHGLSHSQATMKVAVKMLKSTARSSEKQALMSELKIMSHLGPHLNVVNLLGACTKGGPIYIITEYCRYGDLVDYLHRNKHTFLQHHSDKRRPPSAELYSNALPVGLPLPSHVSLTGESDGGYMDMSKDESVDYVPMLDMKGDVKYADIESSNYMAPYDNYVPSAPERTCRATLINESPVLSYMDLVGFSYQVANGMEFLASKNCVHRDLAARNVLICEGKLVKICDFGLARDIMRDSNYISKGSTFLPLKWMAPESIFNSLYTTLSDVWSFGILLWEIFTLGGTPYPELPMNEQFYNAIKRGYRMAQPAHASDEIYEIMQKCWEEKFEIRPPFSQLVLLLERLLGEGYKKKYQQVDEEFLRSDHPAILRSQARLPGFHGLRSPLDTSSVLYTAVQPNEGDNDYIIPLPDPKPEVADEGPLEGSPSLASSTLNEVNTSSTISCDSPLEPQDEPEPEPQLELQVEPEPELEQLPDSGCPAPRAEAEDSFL

In the case of `O=C(Cc1ccc(-c2ccc(OCCN3CCOCC3)cc2)cn1)NCc1ccccc1` [KX2-391], in [1], the “phosphorylation of She Y239/240 (Src trans-phosphorylation)” value is “inhibited”. In addition, the “percent activity of isolated kinase relative to control (untreated)” value was determined as 105% in test [2]; 85% in [6]; 111% in [7]; 100% in test [8]; 108% in test [9]; 97% in test [10]. The “percent activity of isolated kinase relative to control (untreated)” value in test [11] is given as 109%; in test [12] it was 120%; in [13], 134%; in test [14], 110%; in test [15] it was 112%; in test [16], 113%. Moreover, the “percent activity of isolated kinase relative to control (untreated)” value in test [17] came out at 101%; in [18] it was 112%; in [19], 94%; in test [20], 92%. In addition, the “FAK autophosphorylation (Y397)” value in [3] is on record as “no inhibition”. The “PDGF receptor autophosphorylation (Y572/574)” value in [4] is given as “Some effect”. Besides, in [5], the “phosphorylation of FAK Tyr 925 (Src trans-phosphorylation)” value is recorded as “inhibited”. Also, the “phosphorylation of Paxillin Y-31 (Src trans-phosphorylation)” value in [21] is recorded as “inhibited”.
